The values that follow come from PubChem BioAssay (NCI).

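Where inhibition never reached the appropriate level, the endpoint shown equals the highest concentration tested. Otherwise, values were interpolated linearly from a five-concentration, 48-hour dose response in 96-well plates. At the TGI there is no net growth.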

Among the test systems are 786-0 renal; ACHN renal; EKVX NSCLC; HCT-15 colon; HOP-62 NSCLC; HOP-92 NSCLC; MDA-MB-231 breast; NCI-H226 lung; OVCAR-3 ovarian; RPMI-8226 leukemia; RXF 393 renal; SF-268 CNS; SF-295 CNS; SK-MEL-5 melanoma; SNB-19 CNS; SW-620 colon; UACC-257 melanoma; UACC-62 melanoma.
Common to all, as to assay: DTP human tumour cell line panel, 48 h

In the case of `Cc1c(N=Nc2ccc(Cl)cc2)c(C)n(C2OC(CO)C(O)C(O)C2O)c(=S)c1C#N` (stereo not drawn), the TGI was 37.4 µM in the assay on 786-0 renal; 55.5 µM with ACHN renal; 93.2 µM with EKVX NSCLC; 60.8 µM with HCT-15 colon; 36.8 µM in the assay on HOP-62 NSCLC; 71.4 µM in the assay with HOP-92 NSCLC. Moreover, the TGI in the assay with MDA-MB-231 breast is 36.1 µM; in the assay with NCI-H226 lung it was 65.9 µM; with OVCAR-3 ovarian it was 34.2 µM; in the assay on RPMI-8226 leukemia, 50.3 µM; with RXF 393 renal, 71.6 µM; with SF-268 CNS it was 52.1 µM. The TGI is 83.5 µM in the assay on SF-295 CNS; 21.8 µM in the assay on SK-MEL-5 melanoma; above 100 µM in the assay on SNB-19 CNS; above 100 µM in the assay on SW-620 colon; 54.1 µM in the assay with UACC-257 melanoma; 30.5 µM in the assay with UACC-62 melanoma.

As for `Cc1nc2ccc(N)cc2[nH]c1=O`, the TGI with 786-0 renal, with ACHN renal, in the assay with EKVX NSCLC, in the assay on HCT-15 colon, with HOP-62 NSCLC and with HOP-92 NSCLC was above 100 µM each time. Further, the TGI in the assay on OVCAR-3 ovarian, in the assay on RPMI-8226 leukemia, in the assay with SF-295 CNS, in the assay on SK-MEL-5 melanoma, with SNB-19 CNS and with SW-620 colon was above 100 µM each time. In addition, the TGI in the assay with UACC-257 melanoma and with UACC-62 melanoma was above 100 µM in each case.

`N#CC1CCCCC1NC1(C#N)CCCCC1` (stereo not drawn): the TGI with 786-0 renal, with EKVX NSCLC, in the assay with HCT-15 colon, with HOP-62 NSCLC, in the assay on NCI-H226 lung and with OVCAR-3 ovarian was above 100 µM each time. Also, the total growth inhibition concentration (TGI) in the assay on RPMI-8226 leukemia, with RXF 393 renal, in the assay with SF-268 CNS, in the assay on SF-295 CNS, in the assay on SK-MEL-5 melanoma and with SNB-19 CNS was above 100 µM each time. In addition, the TGI with SW-620 colon, with UACC-257 melanoma and with UACC-62 melanoma was above 100 µM in each case.

In the case of `Cc1cc(-c2cscn2)c(O)c([N+](=O)[O-])c1`, the concentration for total growth inhibition (TGI) with 786-0 renal, in the assay on ACHN renal, in the assay with EKVX NSCLC, in the assay with HCT-15 colon, in the assay with HOP-62 NSCLC and in the assay with HOP-92 NSCLC was above 100 µM throughout. Moreover, the TGI in the assay with RPMI-8226 leukemia, in the assay on SF-295 CNS, in the assay with SK-MEL-5 melanoma, in the assay with SNB-19 CNS, in the assay on SW-620 colon and in the assay with UACC-257 melanoma was above 100 µM in each case. The TGI with UACC-62 melanoma was above 100 µM.

Turning to `Cn1cnc2c1c(=O)n(CCNCCO)c(=O)n2C`, the concentration for total growth inhibition (TGI) in the assay on 786-0 renal, with ACHN renal, in the assay with EKVX NSCLC, in the assay with HCT-15 colon, in the assay with HOP-62 NSCLC and in the assay on HOP-92 NSCLC was above 100 µM throughout. For the same compound, the concentration for total growth inhibition (TGI) in the assay with MDA-MB-231 breast, in the assay with NCI-H226 lung, with OVCAR-3 ovarian, in the assay with RPMI-8226 leukemia, with RXF 393 renal and in the assay on SF-268 CNS was above 100 µM throughout. Further, the TGI in the assay with SF-295 CNS, with SK-MEL-5 melanoma, in the assay on SNB-19 CNS, in the assay with SW-620 colon, in the assay with UACC-257 melanoma and with UACC-62 melanoma was above 100 µM in each case.

For the compound `Clc1ccc(-c2nc3ccc4ccccc4c3c3c2CCCC3)cc1`, the total growth inhibition concentration (TGI) in the assay with 786-0 renal, with EKVX NSCLC, with HCT-15 colon, with HOP-62 NSCLC, with MDA-MB-231 breast and with NCI-H226 lung was above 100 µM in each case. Further, the TGI in the assay on OVCAR-3 ovarian, in the assay on RPMI-8226 leukemia, in the assay with RXF 393 renal, in the assay with SF-268 CNS, in the assay with SF-295 CNS and in the assay with SK-MEL-5 melanoma was above 100 µM each time. Moreover, the TGI in the assay with SNB-19 CNS, with SW-620 colon, in the assay on UACC-257 melanoma and with UACC-62 melanoma was above 100 µM throughout.

On to `CSc1nc2nc(C(O)C(O)C(O)CO)cnc2c(=O)[nH]1` (stereo not drawn), for which the TGI in the assay on 786-0 renal, with ACHN renal, in the assay with EKVX NSCLC, in the assay on HCT-15 colon, in the assay with HOP-62 NSCLC and in the assay on NCI-H226 lung was above 100 µM each time. Also, the TGI in the assay with OVCAR-3 ovarian, with RPMI-8226 leukemia, in the assay with RXF 393 renal, in the assay with SF-268 CNS, in the assay on SF-295 CNS and with SK-MEL-5 melanoma was above 100 µM each time. Also, the concentration for total growth inhibition (TGI) in the assay on SNB-19 CNS, in the assay with SW-620 colon, with UACC-257 melanoma and in the assay with UACC-62 melanoma was above 100 µM in each case.

For `CCCCCCC1CC(=O)C1(Cl)Cl` (stereo not drawn), the TGI with 786-0 renal was 32.2 µM; in the assay on ACHN renal it was 35.8 µM; in the assay with EKVX NSCLC it was above 100 µM; in the assay with HCT-15 colon, 99.6 µM; with HOP-62 NSCLC, above 100 µM; in the assay with MDA-MB-231 breast it was 68.5 µM. The concentration for total growth inhibition (TGI) with NCI-H226 lung is above 100 µM; with RPMI-8226 leukemia, 2.48 µM; in the assay with SF-268 CNS it was 66.5 µM; with SF-295 CNS, above 100 µM; in the assay on SK-MEL-5 melanoma, 31.2 µM; with SNB-19 CNS, above 100 µM. Besides, the values for the TGI in the assay with SW-620 colon, in the assay with UACC-257 melanoma and in the assay on UACC-62 melanoma were above 100 µM, 41.1 µM and 47.8 µM, respectively.

On to `CCCCCC1=C2C(c3ccc(OC)cc3)=C(N)C(c3ccc(OC)cc3)=C3NC(=O)C(C=C1)C32` (stereo not drawn), for which the TGI was above 100 µM with 786-0 renal; above 100 µM in the assay with ACHN renal; above 100 µM in the assay on EKVX NSCLC; above 100 µM in the assay with HCT-15 colon; above 100 µM with HOP-62 NSCLC; 60.7 µM with HOP-92 NSCLC. The total growth inhibition concentration (TGI) was above 100 µM in the assay on MDA-MB-231 breast; 96.8 µM in the assay with NCI-H226 lung; above 100 µM with OVCAR-3 ovarian; above 100 µM in the assay with RPMI-8226 leukemia; 54.1 µM in the assay on RXF 393 renal; 38.9 µM in the assay with SF-268 CNS. Also, the TGI in the assay with SF-295 CNS, with SK-MEL-5 melanoma, in the assay on SNB-19 CNS, with SW-620 colon, in the assay with UACC-257 melanoma and in the assay on UACC-62 melanoma was above 100 µM each time.

A word on the TGI: it is the concentration giving total growth inhibition. Read a high TGI as lower sensitivity of the cells.
